Measurements taken from US8916712B2, “Compositions and methods for cytoprotection” (Board of Trustees of the University of Arkansas, priority 2007, dated 2014).

Columns and labels:
[1] = molecular target: T1, recombinant human DNase I (Homo sapiens, UniProt P24855); experiment: Plasmid incision assay of endonuclease activity, recombinant DNase I; assay type: biochemical
T1 construct: Recombinant DNase I was produced using a similar approach; made in house
T1 sequence (P24855 23-282): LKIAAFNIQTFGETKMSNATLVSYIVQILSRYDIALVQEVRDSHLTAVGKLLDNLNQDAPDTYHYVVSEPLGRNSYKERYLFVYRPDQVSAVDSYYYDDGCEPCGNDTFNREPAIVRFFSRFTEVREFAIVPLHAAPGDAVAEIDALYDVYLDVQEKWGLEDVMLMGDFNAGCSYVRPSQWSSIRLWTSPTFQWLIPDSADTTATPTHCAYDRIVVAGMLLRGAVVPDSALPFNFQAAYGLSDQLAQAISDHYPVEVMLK
Description: It was hypothesized that Zn^2+-chelates of aminothiols could provide radioprotection via their direct inhibition of nucleases and their antioxidant properties (i.e., prevent nuclease induction and release). To test this hypothesis, the activity of Zn(II) chelates to inhibit nucleases was assayed in vitro. For this, DNase I and EndoG were cloned, recombinant nuclease were expressed and purified for the in vitro assay. Human and mouse mature EndoG cDNA was reverse transcribed by RT-PCR from either normal human breast epithelial HMEC cells (Clonetics, Walkersville, Md.) or immortalized mouse proximal tubule epithelial TKPTS cells (obtained from D. Elsa Bello-Reuss, University of Texas Medical Branch, Galveston). The plasmid for mature human EndoG (A49-K297) with a C-terminal histidine tag and mouse mature EndoG (A45-K294) with a C-terminal histidine tag were constructed by inserting coding cDNA into pET29b(+) (Novagen, San Diego, Calif.) and expressed in Escherichia coli BL21 (DE3) cells using standard procedures. Expression of the recombinant proteins was induced by IPTG. The expressed recombinant protein was purified by HisTrap FF crude Kit (GE Healthcare, Uppsala, Sweden) and stored in 20 mM Tris-HCl, ph 7.5, 0.5 M NaCl, 2 mM 2-mercaptoethanol, and 50% glycerol.
(§1) Endonuclease activity was measured using a plasmid incision assay. Activity was measured in 20 μl samples containing 1 μg pBR322 plasmid DNA, 10 mM Tris-HCl, pH 7.7, 25 μg/ml bovine serum albumin V fraction, 0.5 mM dithiothreitol, 5 mM MgCl2, 2 mM CaCl2, and 2 μl endonuclease. After 1 hour incubation at 37° C., the reaction was stopped by the addition 5 μl 1% SDS, 100 mM EDTA. Digested DNA was then subjected to a 1% agarose gel electrophoresis at 7 V/cm for 1 hour at room temperature. The gel was stained in 0.5 μg/ml ethidium bromide solution for 20 minutes and photographed under […]. Scanning densitometer Fotodyne (Fotodyne Inc., Hartland, Wis.) was utilized to quantify the relative amount of endonuclease-treated plasmid DNA present in a covalently closed circular DNA (cccDNA), open circular DNA (ocDNA) or linear DNA (linDNA). One endonuclease unit was defined as the amount of enzyme required to convert 1 μg cccDNA to ocDNA and linDNA.
(§2) Recombinant DNase I and rat serum DNase (which is predominantly rat DNase I) were incubated with 0, 100, or 200 μM of a Zn^2+-chelate (i.e., Zn-3,5-diisopropylsalicylic acid (DIPS), Zn-gluconate, or Zn-glycinate), a ligand (i.e., DIPS, gluconic acid, or glycine, as negative controls), or ZnCl2 (as positive control).

FRTL-5 thyroid cells = experiment: Radiation-induced thyroid cell death (450 Gy), LDH release assay or Comet assay; assay type: cell-based; conditions: added after radiation, 24 hr
Description: FRTL-5 thyroid cells (ATCC, catalog #CRL8305) were irradiated with 450 Gy without or with Zn^2+-chelates added before and/or after irradiation. […] In another experiment, Zn^2+-chelates (i.e., Zn-captopril, Zn-NAC, Zn-penicillamine, or Zn-PTCA) were added to human U937 cells either 30 minutes before, immediately after, or up to 4 hours after irradiation (4 Gy).

[2] = molecular target: T2, rat serum DNase (predominantly rat DNase I) (Rattus norvegicus, UniProt P21704); experiment: Plasmid incision assay of endonuclease activity, rat serum DNase; assay type: biochemical; conditions: 0, 100 or 200 μM; 1 hour at 37° C.; pBR322 plasmid DNA
T2 construct: rat serum DNase (which is predominantly rat DNase I); from tissue; host or cells: rat serum
T2 sequence (P21704 23-284): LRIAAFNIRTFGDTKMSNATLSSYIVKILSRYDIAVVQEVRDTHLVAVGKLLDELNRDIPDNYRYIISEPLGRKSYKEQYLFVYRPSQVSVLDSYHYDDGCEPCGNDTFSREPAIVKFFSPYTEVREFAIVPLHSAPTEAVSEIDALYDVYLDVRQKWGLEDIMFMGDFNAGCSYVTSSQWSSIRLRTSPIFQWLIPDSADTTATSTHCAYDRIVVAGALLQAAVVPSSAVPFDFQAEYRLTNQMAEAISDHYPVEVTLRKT
Description: as §1, §2

white pulp splenocytes = experiment: Total body irradiation of mice (8 Gy), TUNEL-positive white pulp splenocytes; assay type: in vivo, mouse
Source text: Mice were exposed to total body irradiation and the radioprotective effects of Zn^+-chelates administered before or after the irradiation were examined. Each unanesthetized mouse was placed temporarily in a well ventilated plexiglass restrainer and exposed to total body irradiation from a cesium irradiator. A dose of 8 Gy was chosen on the basis of previous studies utilizing male CD-1 mice (Bichay et al., 1986, supra). A total of 6-10 animals per group were used. The animals were allowed to survive for 36 hr after irradiation.
To test for radioprotective effects, Zn-DIPS was injected subcutaneously twice a day 15 mg/kg each time (i.e., 30 mg/kg/day). One group of animals (“before”) received Zn-DIPS starting 2 days before irradiation and continued until 36 hr after irradiation. Another group (“after”) was injected with Zn-DIPS about 30 min […] irradiation and continued until euthanasia. “Vehicle” control animals were injected with vehicle (i.e., saline) for the duration of the experiment, and irradiated with the same dose.
FIG. 12 presents the number of TUNEL-positive cells in white pulp splenocytes from the different groups.

Inhibition of DNase I activity ([1]; 0, 100 or 200 μM, 1 hour at 37° C., pBR322 plasmid DNA): inhibited | Ranking of nuclease inhibition among the Zn^2+-chelates tested ([1]; DNase I and serum DNase, FIG. 5): best inhibition | Inhibition of serum DNase activity [2]: inhibited
Substance: Zn-3,5-diisopropylsalicylic acid [Zn-DIPS]
Protection from radiation-induced thyroid cell death (FRTL-5 thyroid cells): provided protection | Radioprotection (TUNEL-positive white pulp splenocytes), administered before irradiation (white pulp splenocytes; 15 mg/kg s.c. twice a day from 2 days before until 36 hr after irradiation): partial radioprotection | Radioprotection (TUNEL-positive white pulp splenocytes), administered after irradiation (white pulp splenocytes; 15 mg/kg s.c. twice a day, "after" group): partial radioprotection | Protection of spleen compared with inactivation of DNase I (white pulp splenocytes; versus DNase I knock-out mice): better protection
